Assay results: patent US20130338106A1, “COMPOUNDS INHIBITING LEUCINE-RICH REPEAT KINASE ENZYME ACTIVITY” (priority 2011, published 2013)
Where two headings read alike, the source gives them in different places.

Experiments:
Type in all cases: biochemical
CLK2 = target: T1, CLK2 (Homo sapiens, UniProt P49760); assay: ProfilerPro Kinase Selectivity, CLK2; conditions: tested at 10 uM, read-out: percent inhibition of the kinase activity
T1 construct: purchased Caliper LifeSciences
Procedure: (§1) Kinome selectivity profiling was performed using two example compounds according to the manufacturer's instructions using Caliper LifeSciences' ProfilerPro Kinase Selectivity Assay Kits. Compounds prepared in Examples 1 and 7 were tested at 10 uM and data were recorded using the Caliper LabChip® EZ Reader™. Each compounds' percent inhibition of the kinase activity measured in this manner is reported in the following lists.

SRM = target: T2, SRM (Homo sapiens, UniProt Q9H3Y6); assay: ProfilerPro Kinase Selectivity, SRM; conditions: tested at 10 uM, read-out: percent inhibition of the kinase activity
T2 construct: purchased Caliper LifeSciences
Procedure: as §1

PRKCA = target: T3, PRKCA (Homo sapiens, UniProt P17252); assay: ProfilerPro Kinase Selectivity, PRKCA; conditions: tested at 10 uM, read-out: percent inhibition of the kinase activity
T3 construct: purchased Caliper LifeSciences
Procedure: as §1

ABL1 E255K = target: T4, ABL1 E255K (Homo sapiens, UniProt P00519, E255K); assay: ProfilerPro Kinase Selectivity, ABL1 E255K; conditions: tested at 10 uM, read-out: percent inhibition of the kinase activity
T4 construct: purchased Caliper LifeSciences
Procedure: as §1

SGK2 = target: T5, SGK2 (Homo sapiens, UniProt Q9HBY8); assay: ProfilerPro Kinase Selectivity, SGK2; conditions: tested at 10 uM, read-out: percent inhibition of the kinase activity
T5 construct: purchased Caliper LifeSciences
Procedure: as §1

CAMK4 = target: T6, CAMK4 (Homo sapiens, UniProt Q16566); assay: ProfilerPro Kinase Selectivity, CAMK4; conditions: tested at 10 uM, read-out: percent inhibition of the kinase activity
T6 construct: purchased Caliper LifeSciences
Procedure: as §1

BRSK1 = target: T7, BRSK1 (Homo sapiens, UniProt Q8TDC3); assay: ProfilerPro Kinase Selectivity, BRSK1; conditions: tested at 10 uM, read-out: percent inhibition of the kinase activity
T7 construct: purchased Caliper LifeSciences
Procedure: as §1

LRRK2 (G2019S) = target: T8, LRRK2 (G2019S) (Homo sapiens, UniProt Q5S007, G2019S); assay: ProfilerPro Kinase Selectivity, LRRK2 (G2019S); conditions: read-out: percent inhibition of the kinase activity
T8 construct: purchased Caliper LifeSciences
Procedure: as §1, with “Reader™.” for “Reader™. Each compounds' percent inhibition of the kinase activity measured in this manner is reported in the following lists.”

DCAMKL2 = target: T9, DCAMKL2 (Homo sapiens, UniProt Q8N568); assay: ProfilerPro Kinase Selectivity, DCAMKL2; conditions: tested at 10 uM, read-out: percent inhibition of the kinase activity
T9 construct: purchased Caliper LifeSciences
Procedure: as §1

FLT-3 D835Y = target: T10, FLT-3 D835Y (Homo sapiens, UniProt P36888, D835Y); assay: ProfilerPro Kinase Selectivity, FLT-3 D835Y; conditions: tested at 10 uM, read-out: percent inhibition of the kinase activity
T10 construct: purchased Caliper LifeSciences
Procedure: as §1

TSSK2 = target: T11, TSSK2 (Homo sapiens, UniProt Q96PF2); assay: ProfilerPro Kinase Selectivity, TSSK2; conditions: tested at 10 uM, read-out: percent inhibition of the kinase activity
T11 construct: purchased Caliper LifeSciences
Procedure: as §1

KDR = target: T12, KDR (Homo sapiens, UniProt P35968); assay: ProfilerPro Kinase Selectivity, KDR; conditions: tested at 10 uM, read-out: percent inhibition of the kinase activity
T12 construct: purchased Caliper LifeSciences
Procedure: as §1

P38G = target: T13, P38G (Homo sapiens, UniProt P53778); assay: ProfilerPro Kinase Selectivity, P38G; conditions: tested at 10 uM, read-out: percent inhibition of the kinase activity
T13 construct: purchased Caliper LifeSciences
Procedure: as §1

MET = target: T14, MET (Homo sapiens, UniProt P08581); assay: ProfilerPro Kinase Selectivity, MET; conditions: tested at 10 uM, read-out: percent inhibition of the kinase activity
T14 construct: purchased Caliper LifeSciences
Procedure: as §1

AKT3 = target: T15, AKT3 (Homo sapiens, UniProt Q9Y243); assay: ProfilerPro Kinase Selectivity, AKT3; conditions: tested at 10 uM, read-out: percent inhibition of the kinase activity
T15 construct: purchased Caliper LifeSciences
Procedure: as §1

HIPK1 = target: T16, HIPK1 (Homo sapiens, UniProt Q86Z02); assay: ProfilerPro Kinase Selectivity, HIPK1; conditions: tested at 10 uM, read-out: percent inhibition of the kinase activity
T16 construct: purchased Caliper LifeSciences
Procedure: as §1

ALK = target: T17, ALK (Homo sapiens, UniProt Q9UM73); assay: ProfilerPro Kinase Selectivity, ALK; conditions: tested at 10 uM, read-out: percent inhibition of the kinase activity
T17 construct: purchased Caliper LifeSciences
Procedure: as §1

ABL1 G250E = target: T18, ABL1 G250E (Homo sapiens, UniProt P00519, G250E); assay: ProfilerPro Kinase Selectivity, ABL1 G250E; conditions: tested at 10 uM, read-out: percent inhibition of the kinase activity
T18 construct: purchased Caliper LifeSciences
Procedure: as §1

ROS = target: T19, ROS (Homo sapiens, UniProt P08922); assay: ProfilerPro Kinase Selectivity, ROS; conditions: tested at 10 uM, read-out: percent inhibition of the kinase activity
T19 construct: purchased Caliper LifeSciences
Procedure: as §1

DYRK4 = target: T20, DYRK4 (Homo sapiens, UniProt Q9NR20); assay: ProfilerPro Kinase Selectivity, DYRK4; conditions: tested at 10 uM, read-out: percent inhibition of the kinase activity
T20 construct: purchased Caliper LifeSciences
Procedure: as §1

PIM-3 = target: T21, PIM-3 (Homo sapiens, UniProt Q86V86); assay: ProfilerPro Kinase Selectivity, PIM-3; conditions: tested at 10 uM, read-out: percent inhibition of the kinase activity
T21 construct: purchased Caliper LifeSciences
Procedure: as §1

SYK = target: T22, SYK (Homo sapiens, UniProt P43405); assay: ProfilerPro Kinase Selectivity, SYK; conditions: tested at 10 uM, read-out: percent inhibition of the kinase activity
T22 construct: purchased Caliper LifeSciences
Procedure: as §1

ARG = target: T23, ARG (Homo sapiens, UniProt P42684); assay: ProfilerPro Kinase Selectivity, ARG; conditions: tested at 10 uM, read-out: percent inhibition of the kinase activity
T23 construct: purchased Caliper LifeSciences
Procedure: as §1

EPHB3 = target: T24, EPHB3 (Homo sapiens, UniProt P54753); assay: ProfilerPro Kinase Selectivity, EPHB3; conditions: tested at 10 uM, read-out: percent inhibition of the kinase activity
T24 construct: purchased Caliper LifeSciences
Procedure: as §1

DYRK1A = target: T25, DYRK1A (Homo sapiens, UniProt Q13627); assay: ProfilerPro Kinase Selectivity, DYRK1A; conditions: tested at 10 uM, read-out: percent inhibition of the kinase activity
T25 construct: purchased Caliper LifeSciences
Procedure: as §1

CAMK2A = target: T26, CAMK2A (Homo sapiens, UniProt Q9UQM7); assay: ProfilerPro Kinase Selectivity, CAMK2A; conditions: tested at 10 uM, read-out: percent inhibition of the kinase activity
T26 construct: purchased Caliper LifeSciences
Procedure: as §1

RAF-1 = target: T27, RAF-1 (Homo sapiens, UniProt P04049); assay: ProfilerPro Kinase Selectivity, RAF-1; conditions: tested at 10 uM, read-out: percent inhibition of the kinase activity
T27 construct: purchased Caliper LifeSciences
Procedure: as §1

RET = target: T28, RET (Homo sapiens, UniProt P07949); assay: ProfilerPro Kinase Selectivity, RET; conditions: tested at 10 uM, read-out: percent inhibition of the kinase activity
T28 construct: purchased Caliper LifeSciences
Procedure: as §1

FLT1 = target: T29, FLT1 (Homo sapiens, UniProt P17948); assay: ProfilerPro Kinase Selectivity, FLT1; conditions: tested at 10 uM, read-out: percent inhibition of the kinase activity
T29 construct: purchased Caliper LifeSciences
Procedure: as §1

ABL Q252H = target: T30, ABL Q252H (Homo sapiens, UniProt P00519, Q252H); assay: ProfilerPro Kinase Selectivity, ABL Q252H; conditions: tested at 10 uM, read-out: percent inhibition of the kinase activity
T30 construct: purchased Caliper LifeSciences
Procedure: as §1

ABL = target: T31, ABL (Homo sapiens, UniProt P00519); assay: ProfilerPro Kinase Selectivity, ABL; conditions: tested at 10 uM, read-out: percent inhibition of the kinase activity
T31 construct: purchased Caliper LifeSciences
Procedure: as §1

GSK3A = target: T32, GSK3A (Homo sapiens, UniProt P49840); assay: ProfilerPro Kinase Selectivity, GSK3A; conditions: tested at 10 uM, read-out: percent inhibition of the kinase activity
T32 construct: purchased Caliper LifeSciences
Procedure: as §1

LCK = target: T33, LCK (Homo sapiens, UniProt P06239); assay: ProfilerPro Kinase Selectivity, LCK; conditions: tested at 10 uM, read-out: percent inhibition of the kinase activity
T33 construct: purchased Caliper LifeSciences
Procedure: as §1

DAPK1 = target: T34, DAPK1 (Homo sapiens, UniProt P53355); assay: ProfilerPro Kinase Selectivity, DAPK1; conditions: tested at 10 uM, read-out: percent inhibition of the kinase activity
T34 construct: purchased Caliper LifeSciences
Procedure: as §1

NUAK1 = target: T35, NUAK1 (Homo sapiens, UniProt O60285); assay: ProfilerPro Kinase Selectivity, NUAK1; conditions: tested at 10 uM, read-out: percent inhibition of the kinase activity
T35 construct: purchased Caliper LifeSciences
Procedure: as §1

ERK1 = target: T36, ERK1 (Homo sapiens, UniProt P27361); assay: ProfilerPro Kinase Selectivity, ERK1; conditions: tested at 10 uM, read-out: percent inhibition of the kinase activity
T36 construct: purchased Caliper LifeSciences
Procedure: as §1

IKKE = target: T37, IKKE (Homo sapiens, UniProt Q14164); assay: ProfilerPro Kinase Selectivity, IKKE; conditions: tested at 10 uM, read-out: percent inhibition of the kinase activity
T37 construct: purchased Caliper LifeSciences
Procedure: as §1

T11 sequence (Q96PF2 whole entry, species assumed): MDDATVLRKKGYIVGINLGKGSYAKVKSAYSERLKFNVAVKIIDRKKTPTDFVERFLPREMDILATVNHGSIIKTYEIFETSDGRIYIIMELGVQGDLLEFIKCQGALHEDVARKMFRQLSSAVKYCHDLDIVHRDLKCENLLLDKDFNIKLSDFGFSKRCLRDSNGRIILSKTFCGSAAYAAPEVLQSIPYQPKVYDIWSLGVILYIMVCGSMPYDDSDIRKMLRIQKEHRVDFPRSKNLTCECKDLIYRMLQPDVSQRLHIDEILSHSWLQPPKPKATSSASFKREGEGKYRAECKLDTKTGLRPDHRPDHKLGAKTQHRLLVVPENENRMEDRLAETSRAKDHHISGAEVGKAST
T9 sequence (Q8N568 whole entry, species assumed): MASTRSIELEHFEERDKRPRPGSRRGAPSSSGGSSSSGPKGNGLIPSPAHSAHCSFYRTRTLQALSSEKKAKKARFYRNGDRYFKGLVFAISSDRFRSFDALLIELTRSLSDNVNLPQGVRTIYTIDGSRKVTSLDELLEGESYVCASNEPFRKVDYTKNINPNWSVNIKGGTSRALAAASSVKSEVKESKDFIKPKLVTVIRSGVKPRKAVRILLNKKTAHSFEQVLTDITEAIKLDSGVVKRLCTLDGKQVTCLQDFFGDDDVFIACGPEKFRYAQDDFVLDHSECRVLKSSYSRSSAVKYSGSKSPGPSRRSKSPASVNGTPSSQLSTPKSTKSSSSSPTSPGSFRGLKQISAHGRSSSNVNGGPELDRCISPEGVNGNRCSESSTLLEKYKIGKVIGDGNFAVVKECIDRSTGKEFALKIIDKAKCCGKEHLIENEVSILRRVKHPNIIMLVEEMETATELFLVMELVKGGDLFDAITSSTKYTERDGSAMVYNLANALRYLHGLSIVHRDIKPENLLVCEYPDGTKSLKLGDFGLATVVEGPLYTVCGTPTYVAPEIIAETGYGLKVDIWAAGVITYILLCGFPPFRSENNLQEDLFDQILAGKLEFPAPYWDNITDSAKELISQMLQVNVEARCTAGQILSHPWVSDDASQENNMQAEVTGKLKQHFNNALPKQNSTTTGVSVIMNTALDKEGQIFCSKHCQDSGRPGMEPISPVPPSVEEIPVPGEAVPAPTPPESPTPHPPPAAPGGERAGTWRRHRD
T34 sequence (P53355 whole entry, species assumed): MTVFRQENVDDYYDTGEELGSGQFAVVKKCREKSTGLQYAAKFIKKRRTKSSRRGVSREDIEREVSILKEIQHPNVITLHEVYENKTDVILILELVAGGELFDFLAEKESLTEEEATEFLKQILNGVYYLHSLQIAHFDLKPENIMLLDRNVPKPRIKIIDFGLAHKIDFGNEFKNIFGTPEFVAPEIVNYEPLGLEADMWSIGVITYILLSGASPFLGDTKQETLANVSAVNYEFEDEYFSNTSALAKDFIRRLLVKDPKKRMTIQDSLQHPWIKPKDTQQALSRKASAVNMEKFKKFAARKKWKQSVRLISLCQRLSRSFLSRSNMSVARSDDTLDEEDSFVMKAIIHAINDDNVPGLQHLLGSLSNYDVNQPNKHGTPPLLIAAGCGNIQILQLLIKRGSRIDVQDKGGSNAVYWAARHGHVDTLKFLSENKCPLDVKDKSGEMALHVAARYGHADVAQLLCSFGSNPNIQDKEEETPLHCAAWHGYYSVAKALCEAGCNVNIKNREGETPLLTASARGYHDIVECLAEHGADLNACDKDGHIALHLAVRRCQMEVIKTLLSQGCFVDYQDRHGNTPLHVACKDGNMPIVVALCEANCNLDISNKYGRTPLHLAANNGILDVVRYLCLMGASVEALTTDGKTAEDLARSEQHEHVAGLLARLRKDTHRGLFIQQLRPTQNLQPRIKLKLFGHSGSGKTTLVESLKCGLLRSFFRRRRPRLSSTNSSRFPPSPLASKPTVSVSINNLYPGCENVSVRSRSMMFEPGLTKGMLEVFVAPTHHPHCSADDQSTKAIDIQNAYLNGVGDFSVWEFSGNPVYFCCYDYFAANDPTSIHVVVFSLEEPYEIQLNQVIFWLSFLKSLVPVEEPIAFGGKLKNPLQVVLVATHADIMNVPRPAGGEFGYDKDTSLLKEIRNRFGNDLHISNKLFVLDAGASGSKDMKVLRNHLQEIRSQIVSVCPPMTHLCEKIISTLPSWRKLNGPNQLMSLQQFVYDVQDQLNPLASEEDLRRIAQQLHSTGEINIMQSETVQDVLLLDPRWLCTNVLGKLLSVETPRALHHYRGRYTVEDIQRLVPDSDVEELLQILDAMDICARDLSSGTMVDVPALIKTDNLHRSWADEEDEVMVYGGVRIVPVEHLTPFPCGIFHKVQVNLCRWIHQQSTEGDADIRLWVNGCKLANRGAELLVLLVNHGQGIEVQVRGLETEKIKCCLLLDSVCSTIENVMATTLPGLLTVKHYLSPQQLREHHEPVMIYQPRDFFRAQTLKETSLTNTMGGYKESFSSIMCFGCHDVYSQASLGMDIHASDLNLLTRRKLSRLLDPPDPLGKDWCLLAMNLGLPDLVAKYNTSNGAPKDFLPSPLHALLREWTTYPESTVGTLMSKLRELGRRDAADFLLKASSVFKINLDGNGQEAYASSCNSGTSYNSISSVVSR
T8 sequence (Q5S007 whole entry G2019S): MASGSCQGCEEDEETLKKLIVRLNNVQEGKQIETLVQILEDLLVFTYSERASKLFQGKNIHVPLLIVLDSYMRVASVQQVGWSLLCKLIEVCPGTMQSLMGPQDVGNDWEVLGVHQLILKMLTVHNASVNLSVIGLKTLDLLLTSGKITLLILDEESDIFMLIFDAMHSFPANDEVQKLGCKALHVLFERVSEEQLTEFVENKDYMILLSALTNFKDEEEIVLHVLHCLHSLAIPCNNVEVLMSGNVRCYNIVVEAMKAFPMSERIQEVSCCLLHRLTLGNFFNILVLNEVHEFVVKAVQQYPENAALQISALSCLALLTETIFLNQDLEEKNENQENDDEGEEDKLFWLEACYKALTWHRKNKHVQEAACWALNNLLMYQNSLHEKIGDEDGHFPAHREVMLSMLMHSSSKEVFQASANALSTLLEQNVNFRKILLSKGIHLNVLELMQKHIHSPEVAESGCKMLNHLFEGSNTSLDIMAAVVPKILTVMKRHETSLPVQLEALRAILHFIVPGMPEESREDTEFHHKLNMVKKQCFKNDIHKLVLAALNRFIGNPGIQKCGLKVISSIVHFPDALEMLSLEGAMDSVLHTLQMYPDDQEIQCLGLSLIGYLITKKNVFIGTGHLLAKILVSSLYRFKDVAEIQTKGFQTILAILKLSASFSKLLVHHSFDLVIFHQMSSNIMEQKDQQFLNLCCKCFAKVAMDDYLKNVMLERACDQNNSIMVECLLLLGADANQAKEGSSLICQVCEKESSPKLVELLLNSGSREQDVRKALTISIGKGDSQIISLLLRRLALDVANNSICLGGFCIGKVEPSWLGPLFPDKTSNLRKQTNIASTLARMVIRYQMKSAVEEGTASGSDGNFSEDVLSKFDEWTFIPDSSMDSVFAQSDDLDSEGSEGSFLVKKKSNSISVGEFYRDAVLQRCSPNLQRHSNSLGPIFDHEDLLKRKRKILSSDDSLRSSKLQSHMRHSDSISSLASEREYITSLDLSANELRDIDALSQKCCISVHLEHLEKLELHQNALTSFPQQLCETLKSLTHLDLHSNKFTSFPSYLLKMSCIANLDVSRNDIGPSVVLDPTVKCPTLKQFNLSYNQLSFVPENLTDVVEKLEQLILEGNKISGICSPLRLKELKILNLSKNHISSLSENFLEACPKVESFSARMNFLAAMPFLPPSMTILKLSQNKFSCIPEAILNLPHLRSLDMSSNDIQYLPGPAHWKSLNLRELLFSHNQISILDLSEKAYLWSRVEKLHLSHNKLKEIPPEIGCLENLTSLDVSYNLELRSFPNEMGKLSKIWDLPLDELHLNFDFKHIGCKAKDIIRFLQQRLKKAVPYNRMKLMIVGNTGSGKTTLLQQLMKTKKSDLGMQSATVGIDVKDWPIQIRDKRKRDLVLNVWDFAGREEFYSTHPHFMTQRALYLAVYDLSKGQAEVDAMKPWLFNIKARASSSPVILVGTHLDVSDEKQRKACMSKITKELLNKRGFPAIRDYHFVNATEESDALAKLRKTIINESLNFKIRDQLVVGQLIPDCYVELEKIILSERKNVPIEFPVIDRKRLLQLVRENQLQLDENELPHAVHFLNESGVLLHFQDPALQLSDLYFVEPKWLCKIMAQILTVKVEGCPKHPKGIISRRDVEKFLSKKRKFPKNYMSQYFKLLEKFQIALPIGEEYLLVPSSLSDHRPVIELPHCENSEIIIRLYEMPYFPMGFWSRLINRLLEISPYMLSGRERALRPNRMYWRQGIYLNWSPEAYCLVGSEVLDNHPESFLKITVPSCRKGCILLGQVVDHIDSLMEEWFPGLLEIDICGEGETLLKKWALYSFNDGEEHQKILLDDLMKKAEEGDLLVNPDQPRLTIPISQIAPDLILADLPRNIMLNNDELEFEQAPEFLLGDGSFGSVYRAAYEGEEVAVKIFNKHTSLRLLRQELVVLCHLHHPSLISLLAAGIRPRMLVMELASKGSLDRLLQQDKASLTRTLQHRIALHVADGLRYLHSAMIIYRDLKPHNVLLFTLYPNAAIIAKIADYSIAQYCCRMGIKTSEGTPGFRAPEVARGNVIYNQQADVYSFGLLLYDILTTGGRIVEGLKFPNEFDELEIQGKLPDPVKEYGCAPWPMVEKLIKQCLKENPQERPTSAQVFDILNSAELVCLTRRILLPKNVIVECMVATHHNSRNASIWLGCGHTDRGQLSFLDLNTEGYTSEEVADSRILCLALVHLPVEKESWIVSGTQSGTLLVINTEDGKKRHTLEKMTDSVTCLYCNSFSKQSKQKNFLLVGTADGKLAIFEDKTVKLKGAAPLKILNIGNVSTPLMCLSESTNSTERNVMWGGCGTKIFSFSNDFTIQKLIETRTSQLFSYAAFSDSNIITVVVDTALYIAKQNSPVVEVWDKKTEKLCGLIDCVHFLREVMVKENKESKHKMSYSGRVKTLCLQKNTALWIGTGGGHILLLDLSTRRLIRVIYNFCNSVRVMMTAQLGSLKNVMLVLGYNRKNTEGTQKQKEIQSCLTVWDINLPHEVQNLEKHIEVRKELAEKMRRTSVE

Compound | inhibition at 10 µM (CLK2) [%] | inhibition at 10 µM (SRM) [%] | inhibition at 10 µM (PRKCA) [%] | inhibition at 10 µM (ABL1 E255K) [%] | inhibition at 10 µM (SGK2) [%] | inhibition at 10 µM (CAMK4) [%] | inhibition at 10 µM (BRSK1) [%] | inhibition at 10 µM (DCAMKL2) [%] | inhibition at 10 µM (FLT-3 D835Y) [%] | inhibition at 10 µM (TSSK2) [%] | inhibition at 10 µM (KDR) [%] | inhibition at 10 µM (P38G) [%] | inhibition at 10 µM (MET) [%] | inhibition at 10 µM (AKT3) [%] | inhibition at 10 µM (HIPK1) [%] | inhibition at 10 µM (ALK) [%] | inhibition at 10 µM (ABL1 G250E) [%] | inhibition at 10 µM (ROS) [%] | inhibition at 10 µM (DYRK4) [%] | inhibition at 10 µM (PIM-3) [%] | other results
CSc1sc(-c2cc[nH]n2)c2c1C(=O)CCC2 [Example 1, 3-(Methylsulfanyl)-1-(1H-pyrazol-3-yl)-6,7-dihydro-2-benzothiophen-4(5H)-one] | 31.3 | 3.5 | 2.6 | 2.8 | 10.6 | 20.1 | -0.2 | -0.8 | 39.3 | 20.1 | 16.4 | 23.3 | 8.2 | -2.2 | 15.9 | 23.8 | 5 | 33.7 | -1.1 | 23.7 | inhibition at 10 µM (LRRK2 (G2019S)): 88.3%; inhibition at 10 µM (SYK): 49.9%; inhibition at 10 µM (ARG): -6%; inhibition at 10 µM (EPHB3): -1%; inhibition at 10 µM (DYRK1A): 44%; inhibition at 10 µM (CAMK2A): -4.8%; inhibition at 10 µM (RAF-1): 3.1%; inhibition at 10 µM (RET): 24.4%; inhibition at 10 µM (FLT1): 1.2%; inhibition at 10 µM (ABL Q252H): 16.9%; inhibition at 10 µM (ABL): 12.7%; inhibition at 10 µM (GSK3A): 8.5%; inhibition at 10 µM (LCK): 4%; inhibition at 10 µM (DAPK1): 7.2%; inhibition at 10 µM (NUAK1): 44.2%; inhibition at 10 µM (ERK1): -2%; inhibition at 10 µM (IKKE): -1.5%
CC1(C)CC(=O)c2c(SC3CCCC3)sc(-c3cc[nH]n3)c2C1 [Example 7, 3-(Cyclopentylsulfanyl)-6,6-dimethyl-1-(1H-pyrazol-3-yl)-6,7-dihydro-2-benzothiophen-4(5H)-one] | 1.3 | 3 | 4.3 | 7.5 | 5.4 | -1.5 | 3.8 | -4.2 | 2.7 | -2.3 | -0.8 | -0.2 | -0.9 | -2.7 | -1 | 44.7 | 6.4 | 42.7 | 0.4 | 8.2 | inhibition at 10 µM (LRRK2 (G2019S); LRRK2 (G2019S), tested at 10 uM): 78.3%; inhibition at 10 µM (SYK): 5.8%; inhibition at 10 µM (ARG): 8.6%; inhibition at 10 µM (EPHB3): 2.2%; inhibition at 10 µM (DYRK1A): 0%; inhibition at 10 µM (CAMK2A): 1.7%; inhibition at 10 µM (RAF-1): -0.2%; inhibition at 10 µM (RET): 20.7%; inhibition at 10 µM (FLT1): 11.8%; inhibition at 10 µM (ABL Q252H): 3.9%; inhibition at 10 µM (ABL): 1.9%; inhibition at 10 µM (GSK3A): -8.3%; inhibition at 10 µM (LCK): 23.3%; inhibition at 10 µM (DAPK1): -2%; inhibition at 10 µM (NUAK1): -4.2%; inhibition at 10 µM (ERK1): 1.9%; inhibition at 10 µM (IKKE): 1.3%
